Results taken from patent publication US20250163054A1, “SUBSTITUTED BICYCLIC HETEROARYL COMPOUNDS USEFUL AS INHIBITORS OF TLR9” (Bristol-Myers Squibb Company, priority 2022, published 2025).
pIC50: −log10 of the molar value.

Experiments:
Assay type in all cases: cell-based
human TLR8 = molecular target: T1, human TLR8 (Homo sapiens, UniProt Q9NR97); assay: TLR7/8/9 Inhibition Reporter Assays (TLR8); details: HEK-Blue cells overexpressing human TLR8, SEAP reporter, stimulated with TLR8 ligand R848
T1 construct: host or cells: HEK-Blue cells (HEK293-derived reporter line)
T1 sequence (Q9NR97 27-1041): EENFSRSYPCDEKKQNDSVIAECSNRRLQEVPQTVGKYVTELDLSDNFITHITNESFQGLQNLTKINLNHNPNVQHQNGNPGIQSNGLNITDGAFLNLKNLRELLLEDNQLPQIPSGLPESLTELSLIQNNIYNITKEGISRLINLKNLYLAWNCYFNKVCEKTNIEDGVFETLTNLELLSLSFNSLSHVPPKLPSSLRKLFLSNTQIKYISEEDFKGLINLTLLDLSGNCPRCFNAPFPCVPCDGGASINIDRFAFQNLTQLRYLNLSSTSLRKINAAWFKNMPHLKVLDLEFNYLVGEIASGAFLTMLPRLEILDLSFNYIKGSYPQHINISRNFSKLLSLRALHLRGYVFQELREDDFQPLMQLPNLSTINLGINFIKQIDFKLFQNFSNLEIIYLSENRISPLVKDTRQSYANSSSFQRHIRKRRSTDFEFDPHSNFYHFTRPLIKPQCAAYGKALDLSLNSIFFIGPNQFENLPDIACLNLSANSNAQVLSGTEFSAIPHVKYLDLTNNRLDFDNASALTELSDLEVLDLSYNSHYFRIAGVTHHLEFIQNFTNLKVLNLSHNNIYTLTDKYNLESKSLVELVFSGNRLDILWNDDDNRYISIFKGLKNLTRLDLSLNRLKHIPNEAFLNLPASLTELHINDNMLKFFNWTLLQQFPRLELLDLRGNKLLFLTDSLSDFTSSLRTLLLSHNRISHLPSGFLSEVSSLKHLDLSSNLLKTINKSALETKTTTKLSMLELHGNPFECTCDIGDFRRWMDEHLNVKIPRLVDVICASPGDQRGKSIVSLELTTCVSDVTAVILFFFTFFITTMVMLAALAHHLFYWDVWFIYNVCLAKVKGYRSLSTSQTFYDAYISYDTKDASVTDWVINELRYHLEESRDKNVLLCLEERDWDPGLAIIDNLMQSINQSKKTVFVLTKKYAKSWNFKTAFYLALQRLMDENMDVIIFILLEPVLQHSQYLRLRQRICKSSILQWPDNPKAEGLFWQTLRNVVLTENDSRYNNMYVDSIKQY
Method: (§1) HEK-Blue™-cells (Invivogen) overexpressing human TLR7, TLR8 or TLR9 receptors were used for screening inhibitors of these receptors using an inducible SEAP (secreted embryonic alkaline phosphatase) reporter gene under the control of the IFN-β minimal promoter fused to five NF-κB and AP-1-binding sites. Cells are seeded into Greiner 384 well plates (15000 cells per well) that are predispensed (by ECHO) with testing compounds in DMSO to yield a final dose response concentration range of 0.85 nM-[…]. After a 60 minute compound pre-treatment in 37° C. incubator, the cells are then stimulated with a TLR7 ligand (gardiquimod at a final concentration of […]), TLR8 ligand (R848 at a final concentration of […]) or TLR9 ligand (ODN2006 at a final concentration of 200 nM) to activate NF-κB and AP-1 which induce the production of SEAP. After a 22 hour incubation at 37° C., 5% CO2, SEAP levels are determined with the addition of HEK-Blue™ Detection reagent (Invivogen), a cell culture medium that allows for detection of SEAP, according to manufacturer's specifications. The percent inhibition is determined as the % reduction in the HEK-Blue signal present in wells treated with agonist plus DMSO alone compared to wells treated with a known inhibitor.

human TLR9 = molecular target: T2, human TLR9 (Homo sapiens, UniProt Q9NR96); assay: TLR7/8/9 Inhibition Reporter Assays (TLR9); details: HEK-Blue cells overexpressing human TLR9, SEAP reporter, stimulated with TLR9 ligand ODN2006
T2 construct: host or cells: HEK-Blue cells (HEK293-derived reporter line)
T2 sequence (Q9NR96 26-1032): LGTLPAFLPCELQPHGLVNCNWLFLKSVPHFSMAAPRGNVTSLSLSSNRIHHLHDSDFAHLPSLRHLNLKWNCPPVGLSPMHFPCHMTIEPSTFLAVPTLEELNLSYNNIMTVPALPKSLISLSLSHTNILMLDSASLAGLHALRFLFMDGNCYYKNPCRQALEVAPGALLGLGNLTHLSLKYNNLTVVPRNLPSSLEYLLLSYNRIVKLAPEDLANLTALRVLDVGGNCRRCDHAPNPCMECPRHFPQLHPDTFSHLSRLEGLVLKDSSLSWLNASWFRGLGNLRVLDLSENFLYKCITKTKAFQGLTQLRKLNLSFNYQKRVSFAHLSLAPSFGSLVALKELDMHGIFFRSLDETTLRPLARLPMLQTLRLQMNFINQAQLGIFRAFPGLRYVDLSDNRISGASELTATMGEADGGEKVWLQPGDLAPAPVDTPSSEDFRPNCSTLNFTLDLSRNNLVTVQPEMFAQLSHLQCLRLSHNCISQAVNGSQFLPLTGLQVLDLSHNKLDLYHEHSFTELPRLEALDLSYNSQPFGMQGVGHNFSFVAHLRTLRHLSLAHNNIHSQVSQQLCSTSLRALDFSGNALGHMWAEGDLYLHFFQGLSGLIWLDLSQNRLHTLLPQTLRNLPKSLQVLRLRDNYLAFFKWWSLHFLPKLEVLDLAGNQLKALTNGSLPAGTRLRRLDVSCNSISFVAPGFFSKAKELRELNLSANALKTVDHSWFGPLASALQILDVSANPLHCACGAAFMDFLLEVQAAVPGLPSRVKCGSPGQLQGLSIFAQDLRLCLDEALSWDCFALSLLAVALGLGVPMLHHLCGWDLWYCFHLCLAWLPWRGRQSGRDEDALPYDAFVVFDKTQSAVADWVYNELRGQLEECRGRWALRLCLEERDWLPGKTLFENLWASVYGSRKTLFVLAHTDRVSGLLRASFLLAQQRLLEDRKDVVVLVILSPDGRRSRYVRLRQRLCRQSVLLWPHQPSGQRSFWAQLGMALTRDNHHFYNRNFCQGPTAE
Method: as §1

human TLR7 = molecular target: T3, human TLR7 (Homo sapiens, UniProt Q9NYK1); assay: TLR7/8/9 Inhibition Reporter Assays (TLR7); details: HEK-Blue cells overexpressing human TLR7, SEAP reporter, stimulated with TLR7 ligand gardiquimod
T3 construct: host or cells: HEK-Blue cells (HEK293-derived reporter line)
T3 sequence (Q9NYK1 27-1049): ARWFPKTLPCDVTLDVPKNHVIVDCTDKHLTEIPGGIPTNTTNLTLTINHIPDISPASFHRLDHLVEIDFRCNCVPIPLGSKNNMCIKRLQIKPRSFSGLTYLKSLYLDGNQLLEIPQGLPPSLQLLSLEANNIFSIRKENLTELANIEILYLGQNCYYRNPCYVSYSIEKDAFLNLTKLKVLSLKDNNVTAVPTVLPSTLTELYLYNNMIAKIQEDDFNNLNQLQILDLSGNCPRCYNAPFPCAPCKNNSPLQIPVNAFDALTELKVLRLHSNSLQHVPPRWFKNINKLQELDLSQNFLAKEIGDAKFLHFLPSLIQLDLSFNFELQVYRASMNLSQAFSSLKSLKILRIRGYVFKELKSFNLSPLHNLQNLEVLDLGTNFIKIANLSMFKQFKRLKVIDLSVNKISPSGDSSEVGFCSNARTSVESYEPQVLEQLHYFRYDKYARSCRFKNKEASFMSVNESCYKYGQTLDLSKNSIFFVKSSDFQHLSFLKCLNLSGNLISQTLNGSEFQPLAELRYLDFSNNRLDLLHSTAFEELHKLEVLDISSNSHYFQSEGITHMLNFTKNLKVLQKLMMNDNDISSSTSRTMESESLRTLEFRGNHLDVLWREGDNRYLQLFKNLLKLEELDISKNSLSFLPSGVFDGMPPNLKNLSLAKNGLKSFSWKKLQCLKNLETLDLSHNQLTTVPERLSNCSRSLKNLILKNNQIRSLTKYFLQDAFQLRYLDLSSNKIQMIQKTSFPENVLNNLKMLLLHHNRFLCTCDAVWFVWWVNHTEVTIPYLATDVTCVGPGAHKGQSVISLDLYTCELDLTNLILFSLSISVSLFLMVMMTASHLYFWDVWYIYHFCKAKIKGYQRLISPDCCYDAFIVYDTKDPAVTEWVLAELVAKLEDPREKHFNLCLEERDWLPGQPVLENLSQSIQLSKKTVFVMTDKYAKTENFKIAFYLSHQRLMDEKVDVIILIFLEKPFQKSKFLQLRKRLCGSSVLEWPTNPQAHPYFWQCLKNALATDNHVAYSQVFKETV
Method: as §1

pIC50 (human TLR8)	pIC50 (human TLR9)	pIC50 (human TLR7)	SMILES
5.04	6.66	6.33	COc1cc(-c2nc3c(C)nc(-c4ccc(N5CCN(C(C)C)CC5)cc4)cc3n2C)cn2ncnc12 [Example 9, 6-(6-(4-(4-isopropylpiperazin-1-yl)phenyl)-1,4-dimethyl-1H-imidazo[4,5-c]pyridin-2-yl)-8-methoxy-[1,2,4]triazolo[1,5-a]pyridine]
	6.89		Cn1c(-c2ccc(S(C)(=O)=O)cc2)nc2cnc(C3CCN(C4CCN(C5CC5)CC4)CC3)cc21 [Example 32, 6-(1′-cyclopropyl-[1,4′-bipiperidin]-4-yl)-1-methyl-2-(4-(methylsulfonyl)phenyl)-1H-imidazo[4,5-c]pyridine]
	6.09	5.26	Cc1nc(-c2ccc(C(=O)NC3CN(Cc4ccccc4)C3)cc2)cc2c1nc(-c1ccc(S(C)(=O)=O)cc1)n2C [Example 49, N-(1-benzylazetidin-3-yl)-4-(1,4-dimethyl-2-(4-(methylsulfonyl)phenyl)-1H-imidazo[4,5-c]pyridin-6-yl)benzamide]
	5.64	5.18	Cc1ccccc1C(=O)N1CCC(NCc2ccc(-c3cc4c(nc(-c5ccc(S(C)(=O)=O)cc5)n4C)c(C)n3)cc2)CC1 [Example 51, (4-((4-(1,4-dimethyl-2-(4-(methylsulfonyl)phenyl)-1H-imidazo[4,5-c]pyridin-6-yl)benzyl)amino)piperidin-1-yl)(o-tolyl)methanone]

Continued, compound first:

SMILES	pIC50 (human TLR8)	pIC50 (human TLR9)	pIC50 (human TLR7)
COc1ccc(-c2nc3c(C)nc(-c4ccc(N5CCN(C(C)C)CC5)cc4)cc3n2C)cc1OC [Example 1, 2-(3,4-dimethoxyphenyl)-6-(4-(4-isopropylpiperazin-1-yl)phenyl)-1,4-dimethyl-1H-imidazo[4,5-c]pyridine]	5.13	6.66	6.00
Cc1nc(-c2ccc(C3CCN(C(C)C)CC3)cc2)cc2c1nc(-c1ccc(S(C)(=O)=O)cc1)n2C [Example 2, 6-(4-(1-isopropylpiperidin-4-yl)phenyl)-1,4-dimethyl-2-(4-(methylsulfonyl)phenyl)-1H-imidazo[4,5-c]pyridine]	4.44	6.52	4.92
CC(C)N1CCC(N2CCC(c3cc4c(nc(-c5ccc(S(C)(=O)=O)cc5)n4C)c(C(F)(F)F)n3)CC2)CC1 [Example 3, 6-(1′-isopropyl-[1,4′-bipiperidin]-4-yl)-1-methyl-2-(4-(methylsulfonyl)phenyl)-4-(trifluoromethyl)-1H-imidazo[4,5-c]pyridine]	< 4.30	6.96	5.51
Cc1nc(-c2ccc(N3CCC(N(C)C)CC3)cc2)cc2c1nc(-c1ccc(S(C)(=O)=O)cc1)n2C [Example 4, 1-(4-(1,4-dimethyl-2-(4-(methylsulfonyl)phenyl)-1H-imidazo[4,5-c]pyridin-6-yl)phenyl)-N,N-dimethylpiperidin-4-amine]	5.04	6.92	5.89
Cc1nc(-c2ccc(CN3CCN(C(C)C)CC3)cc2)cc2c1nc(-c1ccc(S(C)(=O)=O)cc1)n2C [Example 5, 6-(4-((4-isopropylpiperazin-1-yl)methyl)phenyl)-1,4-dimethyl-2-(4-(methylsulfonyl)phenyl)-1H-imidazo[4,5-c]pyridine]	4.66	6.10	5.14
Cc1nc(-c2ccc(N3CCN(C(C)C)CC3)cc2)cc2c1nc(-c1ccc(S(C)(=O)=O)cc1)n2C [Example 6, 6-(4-(4-isopropylpiperazin-1-yl)phenyl)-1,4-dimethyl-2-(4-(methylsulfonyl)phenyl)-1H-imidazo[4,5-c]pyridine]	5.52	6.10	5.51
Cc1nc(-c2ccc(N3CCN(CC(C)C)CC3)cc2)cc2c1nc(-c1ccc(S(C)(=O)=O)cc1)n2C [Example 7, 6-(4-(4-isobutylpiperazin-1-yl)phenyl)-1,4-dimethyl-2-(4-(methylsulfonyl)phenyl)-1H-imidazo[4,5-c]pyridine]	< 4.30	6.62	5.15
Cc1nc(-c2ccc(N3CCN(CC(C)(C)O)CC3)cc2)cc2c1nc(-c1ccc(S(C)(=O)=O)cc1)n2C [Example 8, 1-(4-(4-(1,4-dimethyl-2-(4-(methylsulfonyl)phenyl)-1H-imidazo[4,5-c]pyridin-6-yl)phenyl)piperazin-1-yl)-2-methylpropan-2-ol]	4.89	6.05	5.19
